{
  "source": "patent US8217071B2",
  "about": "“Use of inhibitors of the degradation of p27, in particular Argyrin and derivatives thereof, for the treatment of proliferative diseases” (Helmholtz Zentrum für Infektionsforschung GmbH, priority 2007, dated 2012)",
  "key": {"[1]": {"test_system": "mouse embryonic fibroblasts from p27^kip1 knockout mice", "experiment": "Apoptosis (sub-G1 fraction) by flow cytometry in p27 knockout MEF", "type": "cell-based", "details": "sub G1 fraction", "from_the_text": "(§1) Next the inventors tested whether the stabilization of p27 was indeed required for the apoptosis inducing function of Argyrin A or was merely a consequence of proteasome inhibition. For this the inventors treated immortalized mouse embryonic fibroblasts from p27^kip1 wildtype or knockout mice with Argyrin A or the proteasome inhibitor bortezomib and assayed cell cycle distribution and apoptosis by flow cytometry. […] These differences in sensitivity in response to Argyrin A treatment were not due to differences in the accumulation of other proteasomal substrates in p27 wildtype and knockout cells as p53 and p21 levels increased in both cell lines in response to Argyrin A (FIG. 6B). To extend this observation to human cancer cells the inventors reduced the levels of p27^kip1 in HeLa cells using p27^kip1 specific siRNA.\n(§2) The results shown are the average numbers for six independent experiments. b+d) Wildtype (b) and p27 knockout (d) MEF were treated with Argyrin A or transfected with siRNAs specific for the β1, β2 or β5 subunit of the proteasome for 24 hours. The graphs show the remaining catalytic activity of the different proteasome subunits after Argyrin A or siRNA treatment compared to an untreated control (n=3). The western blots show the expression of the β1, β2 or β5 subunit of the proteasome in proliferating cells and after treatment with siRNAs for a representative experiment. c+e) Flow cytometric measurements of the number of apoptotic cells (sub-G1 fraction) after Argyrin A or siRNA treatment in wildtype (c) or p27 knockout (E) MEF. f) HeLa cells were treated with Argyrin A or siRNA against p27 or Argyrin A and siRNA against p27 for either 24 or 48 hours.\n(§3) MTT assays were done as previously described (Sasse, F. et al. Argyrins, immunosuppressive cyclic peptides from myxobacteria. I. Production, isolation, physico-chemical and biological properties. J Antibiot (Tokyo) 55, 543-51 (2002)). TUNEL staining of tissue sections was performed on 10 micrometer sections which were deparafinised and treated as recommended by the manufacturer. (In Situ Cell Death Detection Kit, Fluorescein; ROCHE, Cat #11 684 795 910). Flow cytometric analysis of cultured cells was done using a Becton Dickinson fluorescence cytometer as previously described (Malek, N. P. et al. A mouse knock-in model exposes sequential proteolytic pathways that regulate p27^Kip1 in G1 and S phase. Nature 413, 323-7 (2001)). Analysis of the distribution of cells in the cell cycle and the sub-G1 fraction was done using Cell Quest software. A histone-associated-DNA-fragments ELISA was used to determine the number of apoptotic cells according to manufacturers instructions (Roche #11 774425001)."}, "[2]": {"test_system": "mouse embryonic fibroblasts from p27^kip1 wildtype mice", "experiment": "Apoptosis (sub-G1 fraction) by flow cytometry in p27 wildtype MEF", "type": "cell-based", "details": "sub G1 fraction", "from_the_text": "as §1, §2, §3"}, "[3]": {"test_system": "SW-480 (colon cancer cell line)", "experiment": "MTT-test proliferation of SW-480", "type": "cell-based, human", "details": "for IC-50 SW-480: half-maximal inhibition of proliferation", "protocol": "as §3"}, "H15 (cervix carcinoma)": {"test_system": "H15 (cervix carcinoma)", "experiment": "MIC (visual), serial dilution, H15", "type": "cell-based, human", "details": "minimal concentration of a serial dilution exhibiting a visual effect", "from_the_text": "(§4) The following table summarizes the effects of argyrin-derivatives A to H on two cancer cell lines, H15 (cervix carcinoma) and SW-480 (colon cancer). In order to test the efficacy, a p27-GFP-clone was used."}, "SW-480 (colon cancer)": {"test_system": "SW-480 (colon cancer)", "experiment": "MIC (visual), serial dilution, SW-480", "type": "cell-based, human", "details": "minimal concentration of a serial dilution exhibiting a visual effect", "from_the_text": "as §4"}, "[4]": {"test_system": "p27-GFP (clone H15GFP-p27, HeLa-cell line; cervix-carcinoma)", "experiment": "GFP-fluorescence per FACS in clone H15GFP-p27", "type": "cell-based, human", "details": "GFP-fluorescence per FACS after 24 h incubation, 500 ng/ml", "from_the_text": "Human p27cDNA (in plasmid vector CS2+) was digested with EcoR1 and BamH1, and the resulting fragment was ligated after gel purification into the vector pEGFP-N1 (Clontech) that was cut with the same restriction enzymes. Thus, a […] fusion with the GFP as contained in the pEGFP-vector was generated. The plasmid was then transfected into Hela cells, and, following selection of the cells with kanamycin, cellular clones were isolated which had the plasmid integrated stably into their chromosome. The expression of the p27EGFP proteins was confirmed using Western blots and immune precipitations for both p27 and GFP.\nas §4"}},
  "note": "Numbered stars: 1 amine (or outer) side, 2 acyl side, 3 side chain; on linkers, the order of the positions; unused ones are H or OH. Square brackets hold non-standard residues; d marks the D form. Peptide text beside a SMILES is read from it. * marks the point of attachment. X1 = COc1cccc2[nH]c(C)c(C[C@H](N[*:1])C(=O)[*:2])c12; dAla(ψthiazole) = C[C@@H](N[*:1])c1nc(C(=O)[*:2])cs1; Trp(4-OMe) = COc1cccc2[nH]cc(C[CH](N)C(=O)O)c12; X2 = O=C(c1csc([C@@H](CO)N[*:1])n1)[*:2]; GlyΨ(Thz) = O=C(c1csc(CN[*:1])n1)[*:2]; dAbu = CC[C@@H](N)C(=O)O; Cbz = O=C(OCc1ccccc1)*; Dha = C=C(N)C(=O)O; Sar = CNCC(=O)O",
  "data": [
    {"compound": "CC(C)C[C@@H](C=O)NC(=O)[C@H](CC(C)C)NC(=O)[C@H](CC(C)C)NC(=O)OCc1ccccc1", "note": "[MG132] (Cbz-Leu-Leu-Leu-aldehyde)", "values": [
      {"measurement": "apoptosis in p27 knockout MEF", "setting": "[1]", "value": "same response"},
      {"measurement": "apoptosis in p27 wildtype MEF", "setting": "[2]", "value": "same response"}
    ]},
    {"compound": "C=C1NC(=O)C(C)NC(=O)CNC(=O)C(Cc2c[nH]c3cccc(OC)c23)NC(=O)C(Cc2c[nH]c3ccccc23)NC(=O)c2csc(n2)CNC(=O)CN(C)C1=O", "note": "(stereo not drawn) [Argyrin H] (cyclo([Dha][Sar][GlyΨ(Thz)]W[Trp(4-OMe)]GA); configuration not given here)", "values": [
      {"measurement": "IC-50 SW-480", "setting": "[3]", "value": "Ca. 0.5 μg/ml"},
      {"measurement": "MIC (visual) H15", "setting": "H15 (cervix carcinoma)", "value": 37, "unit": "µg/mL"},
      {"measurement": "MIC (visual) SW-480", "setting": "SW-480 (colon cancer)", "value": 37, "unit": "µg/mL"}
    ]},
    {"compound": "C=C1NC(=O)[C@@H](C)NC(=O)CNC(=O)[C@H](Cc2c[nH]c3cccc(OC)c23)NC(=O)[C@H](Cc2c[nH]c3ccccc23)NC(=O)c2csc(n2)[C@@H](CO)NC(=O)CN(C)C1=O", "note": "[Argyrin F, argyrin F] (cyclo([Dha][Sar][X2]W[Trp(4-OMe)]G[dA]))", "values": [
      {"measurement": "Mean of FSC-H (Log) H15 p27-GFP-clone", "setting": "[4]", "value": 11.24},
      {"measurement": "IC-50 SW-480", "setting": "[3]", "value": 0.05, "unit": "µg/mL"},
      {"measurement": "MIC (visual) H15", "setting": "H15 (cervix carcinoma)", "value": 0.5, "unit": "µg/mL"},
      {"measurement": "MIC (visual) SW-480", "setting": "SW-480 (colon cancer)", "value": 0.2, "unit": "µg/mL"}
    ]},
    {"compound": "C=C1NC(=O)[C@@H](C)NC(=O)CNC(=O)[C@H](Cc2c(C)[nH]c3cccc(OC)c23)NC(=O)[C@H](Cc2c[nH]c3ccccc23)NC(=O)c2csc(n2)[C@@H](C)NC(=O)CN(C)C1=O", "note": "[Argyrin C] (cyclo(W[X1]G[dA][Dha][Sar][dAla(ψthiazole)]))", "values": [
      {"measurement": "Mean of FSC-H (Log) H15 p27-GFP-clone", "setting": "[4]", "value": 7.36},
      {"measurement": "IC-50 SW-480", "setting": "[3]", "value": "Ca. 0.05 μg/ml"},
      {"measurement": "MIC (visual) H15", "setting": "H15 (cervix carcinoma)", "value": 37, "unit": "µg/mL"},
      {"measurement": "MIC (visual) SW-480", "setting": "SW-480 (colon cancer)", "value": 37, "unit": "µg/mL"}
    ]},
    {"compound": "C=C1NC(=O)[C@@H](CC)NC(=O)CNC(=O)[C@H](Cc2c[nH]c3cccc(OC)c23)NC(=O)[C@H](Cc2c[nH]c3ccccc23)NC(=O)c2csc(n2)[C@@H](C)NC(=O)CN(C)C1=O", "note": "[Argyrin B, argyrin B] (cyclo([Dha][Sar][dAla(ψthiazole)]W[Trp(4-OMe)]G[dAbu]))", "values": [
      {"measurement": "Mean of FSC-H (Log) H15 p27-GFP-clone", "setting": "[4]", "value": 7.60},
      {"measurement": "IC50", "setting": "[3]; Homo sapiens, SW480, half-maximal inhibition of proliferation, read-out: IC-50 SW-480", "value": "~0.05", "unit": "µg/mL"},
      {"measurement": "MIC (visual) H15", "setting": "H15 (cervix carcinoma)", "value": 12, "unit": "µg/mL"},
      {"measurement": "MIC (visual) SW-480", "setting": "SW-480 (colon cancer)", "value": 12, "unit": "µg/mL"}
    ]},
    {"compound": "C=C1NC(=O)[C@@H](CC)NC(=O)CNC(=O)[C@H](Cc2c(C)[nH]c3cccc(OC)c23)NC(=O)[C@H](Cc2c[nH]c3ccccc23)NC(=O)c2csc(n2)[C@@H](C)NC(=O)CN(C)C1=O", "note": "[Argyrin D] (cyclo(W[X1]G[dAbu][Dha][Sar][dAla(ψthiazole)]))", "values": [
      {"measurement": "Mean of FSC-H (Log) H15 p27-GFP-clone", "setting": "[4]", "value": 7.69},
      {"measurement": "IC-50 SW-480", "setting": "[3]", "value": "Ca. 0.05 μg/ml"},
      {"measurement": "MIC (visual) H15", "setting": "H15 (cervix carcinoma)", "value": 12, "unit": "µg/mL"},
      {"measurement": "MIC (visual) SW-480", "setting": "SW-480 (colon cancer)", "value": 37, "unit": "µg/mL"}
    ]}
  ]
}
